Data set [1] in a line: Stability in hepatocytes (human). The class given is in vitro ADME. Particulars: cryopreserved human hepatocytes (suspension). As for the experimental part:
10 mM of 1 was provided as a 1000× stock solution in dimethylsulfoxide (DMSO), and the stock solution was diluted to 1 mM with DMSO in 96-well plates. 30 mM of positive compounds (7-ethoxycoumarin and 7-hydroxycoumarin) were provided as a 1000× stock solution in DMSO, and the stock solution was diluted to 3 mM with DMSO in 96-well plates. 20 μL of 1000× stock solution of each compound were pipetted and was mixed with 380 μL of 45% MeOH/H2O to obtain 50 μM of 1 and 150 μM of the positive control compound solutions to form 50× intermediate solutions. 20 μL of 50× intermediate solution of each compound were pipetted and was mixed with […] of pre-warmed incubation medium to obtain 5 μM of 1 and 15 μM of the positive control compound solutions to form 5× working solutions. The incubation medium was Williams' Medium E (no phenol red) containing 2 mM L-glutamine and 25 mM HEPES. 10 μL of 5× working solutions of each compound were pipetted into appropriate wells in a 96-well plate for time points of 0 minutes, 15 minutes, 30 minutes, 60 minutes, and 90 minutes in duplicates. The plates with compounds were kept warm in an incubator at 37° C.
A cell suspension was prepared by thawing cryopreserved cells, isolating the cells, and suspending the cells in thawing medium. […]
The remaining percentage of 1 after incubation was calculated according to the following equation. […]

Another data set has as its system Caco-2 cells. Briefly: Bidirectional permeability in Caco-2 cells. The class given is in vitro ADME. Particulars: 2 μM, 2 hours. The procedure:
Caco-2 cells purchased from ATCC were seeded onto […] (PET) in 96-well BD Insert plates at 1×10^5 cells/cm^2, and the medium was refreshed every 4˜5 days until to the 21st to 28th day for formation of a confluent cell monolayer.
The transport buffer in the study was Hank's balanced salt solution (HBSS) with 10 mM HEPES at pH 7.40±0.05. Compound 1 was tested at 2 μM bi-directionally in duplicate. Digoxin was tested at 10 μM bi-directionally in duplicate, while nadolol and metoprolol were tested at 2 μM in A to B direction in duplicate. Final DMSO concentration was adjusted to less than 1%. […] Concentrations of compound 1 and […] in starting solution, donor solution, and receiver solution were quantified by LC/MS/MS methodologies, using peak area ratio of analyte/internal standard. […]
The apparent permeability coefficient Papp (cm/s) was calculated using the equation: Papp=(dCr/dt)×Vr/(A×C0) where dCr/dt is the cumulative concentration of compound in the receiver chamber as a function of time (μM/s); Vr is the solution volume in the receiver chamber (0.075 mL on the apical side, 0.25 mL on the basolateral side); A is the surface area for the transport, i.e. 0.0804 cm^2 for the area of the monolayer; Co is the initial concentration in the donor chamber (μM).
The efflux ratio was calculated using the equation: Efflux Ratio=Papp(BA)/Papp(AB) […]
(In general: Caco-2 cells form a polarised layer with tight junctions and transporters.)

The subject of another data set is human naïve T cells. The experiment in a line: Stimulation of blood derived naïve T cells with Der p1 (house dust mite) antigen. Type of data set: cell-based. Particulars: human naïve T cells, Der p1 antigen 5 days; 0.1-100 μM; FIG. 14. As for the experimental part: Naïve T cells from peripheral blood samples were collected and processed using MACSxpress® Whole Blood Pan T Cell Isolation Kit (Miltenyi Biotec), according to the manufacturer's protocol. Isolated naïve T cells were cultured in RPMI medium supplemented with 5% Fetal Bovine Serum (FBS) at 37° C. with 5% (v/v) CO2. T cells were seeded in 24 well plates at a density of 0.5×10^6 cells per well. The cells were pre-treated with the compounds (0, 0.1, 1.0, 10, 100 μM) for 1 hour prior to stimulation. Cells were stimulated with […] of Dermatophagoides pteronyssinus (Der p1) antigen. After 48 hours, fresh […] of Der p1 was added and continued incubating for a further 72 hours at 37° C. with 5% (v/v) CO2. Overall T cells were stimulated with […] of Der p1 antigen for 5 days before supernatants were collected and stored at −80° C. until quantitative detection assays are performed.
Human Interleukin-4 (IL-4), Interleukin-5 (IL-5), Interleukin-6 (IL-6), Interleukin-8 (IL-8), Interleukin-13 ([…]), Interleukin-23 (IL-23), and Interferon gamma (IFNγ) released from supernatants collected post stimulation were measured using Human Magnetic Luminex® Assay Kit. Human Transforming Growth Factor beta (TGFβ) was measured using an Enzyme-Linked Immunosorbent Assay (ELISA)-based analysis.

In general, half-life refers to the time in which the quantity being followed falls by half. Read a high half-life as slow loss.

A value given as a limit tells only on which side of the number the result lay.

In data set [1], `C[C@H](CC/C=C/C(=O)O)O[C@@H]1O[C@@H](C)[C@H](O)C[C@H]1O` [ascr #7, reference compound] displayed a half-life at 1 µM of more than 3.61 h. Besides, the bidirectional permeability entry in the data set on Caco-2 cells is “low bidirectional permeability”. Moreover, in the data set with human naïve T cells, the “percent inhibition relative to Stimulated of IFNγ expression” value is reported as “statistically significant, robust blocking”; the “percent inhibition relative to Stimulated of IL-5 expression” value is reported as “dose-dependent inhibition”; the “percent inhibition relative to Stimulated of TGFβ expression” value is on record as “slight attenuation”.

Consider `C[C@H](CC/C=C/C(=O)OC(C)(C)C)O[C@@H]1O[C@@H](C)[C@H](O)C[C@H]1O` [Compound 1, tert-butyl (2E,6R)-6-{[(2R,3R,5R,6S)-3,5-dihydroxy-6-methyloxan-2-yl]oxy}hept-2-enoate], for which the half-life at 1 µM in data set [1] was 1.77 h. In addition, the bidirectional permeability entry with Caco-2 cells is given as “high bidirectional permeability”. In addition, in the data set with human naïve T cells, the “percent inhibition relative to Stimulated of IFNγ expression” value was “in a statistically significant, dose-dependent manner”; the “percent inhibition relative to Stimulated of IL-5 expression” value is on record as “in a statistically significant, dose-dependent manner”; the “percent inhibition relative to Stimulated of TGFβ expression” value is reported as “in a statistically significant, dose-dependent manner”.

The values above are taken from patent US11845770B2, “Ascaroside derivatives and methods of use” (California Institute of Technology, priority 2019, dated 2023).
